Reference: publication PMC6210068 (ACS Omega, 2018)

How the values were obtained:
[1] = biological target: 5HT2B serotonin receptor (Homo sapiens, UniProt P41595); test: PDSP off-target binding, 5HT2B
[2] = biological target: T1, DOR (Homo sapiens, UniProt P41143); test: Radioligand binding at DOR
[3] = biological target: hDAT (Homo sapiens, UniProt Q01959); test: Radioligand binding at DAT; conditions: 10 μM; [3H]WIN35428; negative = enhanced radioligand binding
[4] = biological target: β3 adrenergic receptor (Homo sapiens, UniProt P13945); test: PDSP off-target binding, β3 adrenergic
[5] = biological target: human α2C adrenergic receptor (Homo sapiens, UniProt P18825); test: PDSP off-target binding, α2C adrenergic
[6] = biological target: rat kidney TSPO (Rattus norvegicus, UniProt P16257); test: Radioligand binding at TSPO; conditions: for Ki: TSPO, rat TSPO, [3H]PK11195
[7] = biological target: T2, rat σ2 receptor (Rattus norvegicus, UniProt Q5U3Y7); test: PDSP binding, σ2 receptor
T2 sequence (Q5U3Y7 1-176): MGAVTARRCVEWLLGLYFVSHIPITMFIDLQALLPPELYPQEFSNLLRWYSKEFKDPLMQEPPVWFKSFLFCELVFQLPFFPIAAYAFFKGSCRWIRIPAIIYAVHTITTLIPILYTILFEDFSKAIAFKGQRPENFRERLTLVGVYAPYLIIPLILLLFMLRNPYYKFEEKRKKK

[8] = biological target: T3, MOR (Homo sapiens, UniProt P35372); test: biochemical; type: binding; conditions: for MOR, inhibition of radioligand binding at 10 μM (class): Table 2
[9] = biological target: T4, KOR (Homo sapiens, UniProt P41145); test: biochemical; type: binding; conditions: KOR, Ki, [3H]U69593; mean ± SEM, N = 2–4
[10] = biological target: T5, mA3AR (Mus musculus, UniProt Q61618); conditions: ref Tosh et al. 2,3,6,34,35,37; cited from earlier work
T5 sequence (Q61618 1-319): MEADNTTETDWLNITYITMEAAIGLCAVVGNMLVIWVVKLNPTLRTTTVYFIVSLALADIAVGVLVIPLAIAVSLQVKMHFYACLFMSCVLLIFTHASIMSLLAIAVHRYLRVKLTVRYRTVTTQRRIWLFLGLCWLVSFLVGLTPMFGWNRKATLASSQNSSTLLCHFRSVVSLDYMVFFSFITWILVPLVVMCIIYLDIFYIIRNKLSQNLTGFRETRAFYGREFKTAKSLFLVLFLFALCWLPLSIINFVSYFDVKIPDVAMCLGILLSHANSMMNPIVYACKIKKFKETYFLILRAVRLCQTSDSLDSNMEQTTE

[11] = biological target: T6, 5HT2C serotonin receptor (Homo sapiens, UniProt P28335); test: PDSP off-target binding, 5HT2C
T6 sequence (P28335 33-458): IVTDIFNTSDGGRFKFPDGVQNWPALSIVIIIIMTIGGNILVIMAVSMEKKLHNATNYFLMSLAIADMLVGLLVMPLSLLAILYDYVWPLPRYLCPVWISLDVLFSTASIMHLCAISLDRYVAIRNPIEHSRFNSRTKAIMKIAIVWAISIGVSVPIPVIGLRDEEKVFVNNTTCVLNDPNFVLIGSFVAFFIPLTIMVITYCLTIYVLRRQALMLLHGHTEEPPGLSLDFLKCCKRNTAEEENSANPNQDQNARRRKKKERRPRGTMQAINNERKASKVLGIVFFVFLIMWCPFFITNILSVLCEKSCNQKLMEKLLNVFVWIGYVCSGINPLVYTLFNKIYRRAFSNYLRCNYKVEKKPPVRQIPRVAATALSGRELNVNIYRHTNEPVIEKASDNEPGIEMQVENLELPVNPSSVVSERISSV

[12] = biological target: T3, MOR; test: β-arrestin-recruitment TANGO assay at MOR; type: cell-based; conditions: 10 μM
[13] = biological target: mA2AAR (Mus musculus, UniProt Q60613); test: mA2AAR binding; conditions: read-out: mA2AAR binding, % inhibition at 10 μM
[14] = biological target: T7, mA1AR (Mus musculus, UniProt Q60612); test: mA1AR binding; conditions: read-out: mA1AR binding, % inhibition at 10 μM
T7 sequence (Q60612 1-326): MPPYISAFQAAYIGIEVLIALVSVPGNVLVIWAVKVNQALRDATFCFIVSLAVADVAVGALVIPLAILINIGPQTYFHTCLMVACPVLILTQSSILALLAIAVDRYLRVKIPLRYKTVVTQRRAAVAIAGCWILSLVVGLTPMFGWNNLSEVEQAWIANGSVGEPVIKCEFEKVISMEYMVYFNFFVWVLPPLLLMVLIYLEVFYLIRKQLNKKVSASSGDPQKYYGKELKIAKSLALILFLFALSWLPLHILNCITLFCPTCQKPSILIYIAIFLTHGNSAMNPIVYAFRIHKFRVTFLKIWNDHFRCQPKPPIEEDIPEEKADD

[15] = biological target: T4, KOR; test: β-arrestin-recruitment TANGO assay at KOR; type: cell-based; conditions: 10 μM; vs naloxone 121 = 100% inhibition; agonist 109 (3 nM)
[16] = biological target: T1, DOR; test: β-arrestin-recruitment TANGO assay at DOR; type: cell-based; conditions: 10 μM
[17] = biological target: T4, KOR; test: cell-based; type: cell-based; conditions: for inhibition of agonist 98 in cAMP assay: 100 nM 98; for inhibition at 30 µM: CHO, read-out: inhibition of cAMP accumulation, % inhibition at 30 μM
[18] = biological target: T4, KOR; type: cell-based; conditions: for inhibition of agonist 98 in βarrestin2 assay: 1 μM 98
[19] = biological target: T8, hA1AR (Homo sapiens, UniProt P30542); test: hA1AR binding
T8 sequence (P30542 1-326): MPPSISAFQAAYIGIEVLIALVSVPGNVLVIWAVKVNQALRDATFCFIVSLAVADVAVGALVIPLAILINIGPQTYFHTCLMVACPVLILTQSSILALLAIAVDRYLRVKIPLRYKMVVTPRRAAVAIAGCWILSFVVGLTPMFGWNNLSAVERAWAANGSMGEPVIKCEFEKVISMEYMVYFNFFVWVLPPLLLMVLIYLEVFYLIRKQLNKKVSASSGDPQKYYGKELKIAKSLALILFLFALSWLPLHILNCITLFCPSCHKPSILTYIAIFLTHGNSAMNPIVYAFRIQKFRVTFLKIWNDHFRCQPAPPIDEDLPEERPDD

[20] = biological target: T9, hA3AR (Homo sapiens, UniProt P0DMS8); test: A3AR binding
T9 sequence (P0DMS8 1-318): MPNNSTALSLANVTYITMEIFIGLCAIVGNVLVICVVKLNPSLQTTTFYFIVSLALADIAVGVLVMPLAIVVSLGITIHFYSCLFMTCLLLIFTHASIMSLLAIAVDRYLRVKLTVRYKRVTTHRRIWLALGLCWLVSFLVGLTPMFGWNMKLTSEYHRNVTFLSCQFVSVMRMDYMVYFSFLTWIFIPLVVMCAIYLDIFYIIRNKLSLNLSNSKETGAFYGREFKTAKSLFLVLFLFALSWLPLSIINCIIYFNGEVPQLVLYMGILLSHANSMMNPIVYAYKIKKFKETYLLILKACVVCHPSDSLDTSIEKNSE

[21] = biological target: hA2AAR (Homo sapiens, UniProt P29274); test: hA2AAR binding; conditions: read-out: binding inhibition at hA2AAR (% at 10 μM)
[22] = biological target: hSERT (Homo sapiens, UniProt P31645); test: biochemical; type: binding
hSERT, sequence (P31645 whole entry): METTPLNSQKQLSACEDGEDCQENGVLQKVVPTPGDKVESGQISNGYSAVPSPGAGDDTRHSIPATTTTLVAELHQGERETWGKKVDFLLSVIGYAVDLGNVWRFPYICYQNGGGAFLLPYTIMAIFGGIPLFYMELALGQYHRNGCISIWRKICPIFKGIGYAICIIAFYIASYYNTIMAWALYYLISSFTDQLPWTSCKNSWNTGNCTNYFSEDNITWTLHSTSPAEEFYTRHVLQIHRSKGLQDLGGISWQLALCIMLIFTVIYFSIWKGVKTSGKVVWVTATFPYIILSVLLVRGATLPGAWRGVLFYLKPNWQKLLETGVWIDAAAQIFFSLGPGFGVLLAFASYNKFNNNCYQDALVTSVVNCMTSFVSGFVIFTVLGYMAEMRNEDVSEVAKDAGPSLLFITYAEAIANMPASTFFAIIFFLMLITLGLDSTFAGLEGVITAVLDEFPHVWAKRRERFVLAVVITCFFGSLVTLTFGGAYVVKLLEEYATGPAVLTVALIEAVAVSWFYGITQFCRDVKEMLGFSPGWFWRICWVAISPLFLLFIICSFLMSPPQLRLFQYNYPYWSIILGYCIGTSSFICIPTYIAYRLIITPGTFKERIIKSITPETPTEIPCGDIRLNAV

T1 sequence (P41143 whole entry): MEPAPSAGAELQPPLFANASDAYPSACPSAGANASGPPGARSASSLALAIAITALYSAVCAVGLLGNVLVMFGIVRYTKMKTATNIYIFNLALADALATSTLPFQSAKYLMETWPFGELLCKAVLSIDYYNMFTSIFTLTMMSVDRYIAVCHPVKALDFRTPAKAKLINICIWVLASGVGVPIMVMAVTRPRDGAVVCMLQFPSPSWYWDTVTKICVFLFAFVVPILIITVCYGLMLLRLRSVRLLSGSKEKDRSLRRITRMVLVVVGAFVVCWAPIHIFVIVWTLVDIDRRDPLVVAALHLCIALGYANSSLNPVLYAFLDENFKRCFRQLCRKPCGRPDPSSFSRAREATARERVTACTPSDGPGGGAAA
rat kidney TSPO, sequence (P16257 whole entry): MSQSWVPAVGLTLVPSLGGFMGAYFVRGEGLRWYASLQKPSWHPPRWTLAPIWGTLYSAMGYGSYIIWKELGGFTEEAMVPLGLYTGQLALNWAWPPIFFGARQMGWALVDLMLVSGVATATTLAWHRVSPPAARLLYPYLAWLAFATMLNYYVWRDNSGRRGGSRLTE
T3 sequence (P35372 whole entry): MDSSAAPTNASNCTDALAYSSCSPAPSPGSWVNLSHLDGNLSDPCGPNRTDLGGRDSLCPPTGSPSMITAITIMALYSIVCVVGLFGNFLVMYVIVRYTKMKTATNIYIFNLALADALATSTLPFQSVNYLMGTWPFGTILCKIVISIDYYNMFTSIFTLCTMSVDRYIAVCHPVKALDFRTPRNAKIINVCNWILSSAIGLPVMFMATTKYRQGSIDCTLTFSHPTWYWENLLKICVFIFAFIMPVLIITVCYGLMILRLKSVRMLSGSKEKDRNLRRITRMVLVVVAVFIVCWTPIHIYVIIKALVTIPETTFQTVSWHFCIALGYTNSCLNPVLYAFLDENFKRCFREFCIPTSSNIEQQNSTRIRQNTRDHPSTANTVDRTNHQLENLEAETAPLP
T4 sequence (P41145 whole entry): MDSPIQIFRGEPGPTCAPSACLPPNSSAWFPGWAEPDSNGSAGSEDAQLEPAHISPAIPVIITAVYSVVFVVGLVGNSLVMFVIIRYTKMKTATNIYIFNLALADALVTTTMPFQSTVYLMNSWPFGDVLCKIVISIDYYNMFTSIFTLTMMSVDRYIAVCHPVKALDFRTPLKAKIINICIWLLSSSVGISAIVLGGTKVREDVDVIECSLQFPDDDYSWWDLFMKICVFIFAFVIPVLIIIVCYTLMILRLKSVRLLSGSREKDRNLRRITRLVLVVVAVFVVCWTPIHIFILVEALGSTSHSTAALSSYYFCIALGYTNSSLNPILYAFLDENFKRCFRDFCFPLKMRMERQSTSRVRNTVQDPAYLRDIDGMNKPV
hDAT, sequence (Q01959 whole entry): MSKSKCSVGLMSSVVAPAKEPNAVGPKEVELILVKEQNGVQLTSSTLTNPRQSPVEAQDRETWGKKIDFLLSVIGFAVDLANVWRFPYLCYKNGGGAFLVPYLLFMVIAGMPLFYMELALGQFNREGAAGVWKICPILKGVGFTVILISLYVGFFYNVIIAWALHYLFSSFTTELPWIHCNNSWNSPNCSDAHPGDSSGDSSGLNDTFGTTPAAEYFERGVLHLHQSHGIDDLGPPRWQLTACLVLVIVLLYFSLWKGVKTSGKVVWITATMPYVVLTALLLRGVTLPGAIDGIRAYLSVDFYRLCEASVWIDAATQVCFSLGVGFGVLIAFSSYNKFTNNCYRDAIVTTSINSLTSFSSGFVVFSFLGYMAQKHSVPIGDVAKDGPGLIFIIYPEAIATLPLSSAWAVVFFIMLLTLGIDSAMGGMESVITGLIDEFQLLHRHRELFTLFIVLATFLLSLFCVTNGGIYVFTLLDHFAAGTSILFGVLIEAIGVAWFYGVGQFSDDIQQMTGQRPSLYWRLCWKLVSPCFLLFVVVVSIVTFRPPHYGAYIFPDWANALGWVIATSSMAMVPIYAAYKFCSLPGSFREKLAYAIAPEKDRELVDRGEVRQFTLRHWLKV
human α2C adrenergic receptor, sequence (P18825 whole entry): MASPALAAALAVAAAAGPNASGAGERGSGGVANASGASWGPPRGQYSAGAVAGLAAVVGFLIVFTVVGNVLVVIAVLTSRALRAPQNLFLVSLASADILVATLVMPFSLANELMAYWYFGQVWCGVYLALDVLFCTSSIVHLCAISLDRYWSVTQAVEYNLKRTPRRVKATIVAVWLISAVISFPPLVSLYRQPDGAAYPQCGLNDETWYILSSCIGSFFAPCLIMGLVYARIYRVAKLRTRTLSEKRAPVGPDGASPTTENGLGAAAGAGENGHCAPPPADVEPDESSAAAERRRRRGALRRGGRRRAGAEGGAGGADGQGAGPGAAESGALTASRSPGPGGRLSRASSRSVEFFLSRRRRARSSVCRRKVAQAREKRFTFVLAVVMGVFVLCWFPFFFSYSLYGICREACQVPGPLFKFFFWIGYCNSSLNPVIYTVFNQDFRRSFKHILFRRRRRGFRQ
5HT2B serotonin receptor, sequence (P41595 whole entry): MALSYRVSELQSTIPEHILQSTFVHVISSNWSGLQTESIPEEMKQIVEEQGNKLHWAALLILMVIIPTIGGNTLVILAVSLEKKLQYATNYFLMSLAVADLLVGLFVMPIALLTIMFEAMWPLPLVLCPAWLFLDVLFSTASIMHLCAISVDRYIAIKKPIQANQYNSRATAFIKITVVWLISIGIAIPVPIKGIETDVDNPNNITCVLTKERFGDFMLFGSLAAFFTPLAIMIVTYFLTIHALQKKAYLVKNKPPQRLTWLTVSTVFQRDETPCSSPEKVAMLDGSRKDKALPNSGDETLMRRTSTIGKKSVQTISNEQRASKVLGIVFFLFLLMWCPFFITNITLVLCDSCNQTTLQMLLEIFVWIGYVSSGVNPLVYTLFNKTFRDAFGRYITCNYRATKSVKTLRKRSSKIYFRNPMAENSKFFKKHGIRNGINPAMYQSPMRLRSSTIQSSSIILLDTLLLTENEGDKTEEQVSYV
β3 adrenergic receptor, sequence (P13945 whole entry): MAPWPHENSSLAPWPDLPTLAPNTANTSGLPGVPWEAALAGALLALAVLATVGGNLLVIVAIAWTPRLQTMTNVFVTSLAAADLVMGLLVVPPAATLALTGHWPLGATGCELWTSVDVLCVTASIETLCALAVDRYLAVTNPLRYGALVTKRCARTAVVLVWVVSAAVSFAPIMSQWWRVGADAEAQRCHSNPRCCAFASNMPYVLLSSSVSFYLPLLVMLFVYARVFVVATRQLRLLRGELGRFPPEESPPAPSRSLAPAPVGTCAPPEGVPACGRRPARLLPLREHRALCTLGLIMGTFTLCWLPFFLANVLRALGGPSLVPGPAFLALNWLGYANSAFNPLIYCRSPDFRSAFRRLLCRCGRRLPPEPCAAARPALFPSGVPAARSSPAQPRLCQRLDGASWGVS
mA2AAR, sequence (Q60613 whole entry): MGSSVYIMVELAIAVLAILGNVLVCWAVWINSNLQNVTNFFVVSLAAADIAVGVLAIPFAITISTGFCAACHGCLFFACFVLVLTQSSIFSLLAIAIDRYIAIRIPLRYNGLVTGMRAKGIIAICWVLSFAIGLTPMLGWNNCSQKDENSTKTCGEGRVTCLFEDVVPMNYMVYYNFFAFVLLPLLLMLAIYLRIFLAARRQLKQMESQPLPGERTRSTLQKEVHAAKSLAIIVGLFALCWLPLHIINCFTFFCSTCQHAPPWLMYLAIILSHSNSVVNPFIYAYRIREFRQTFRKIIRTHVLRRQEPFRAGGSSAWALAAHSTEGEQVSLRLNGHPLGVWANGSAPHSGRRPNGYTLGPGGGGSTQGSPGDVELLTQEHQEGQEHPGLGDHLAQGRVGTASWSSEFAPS
hA2AAR, sequence (P29274 whole entry): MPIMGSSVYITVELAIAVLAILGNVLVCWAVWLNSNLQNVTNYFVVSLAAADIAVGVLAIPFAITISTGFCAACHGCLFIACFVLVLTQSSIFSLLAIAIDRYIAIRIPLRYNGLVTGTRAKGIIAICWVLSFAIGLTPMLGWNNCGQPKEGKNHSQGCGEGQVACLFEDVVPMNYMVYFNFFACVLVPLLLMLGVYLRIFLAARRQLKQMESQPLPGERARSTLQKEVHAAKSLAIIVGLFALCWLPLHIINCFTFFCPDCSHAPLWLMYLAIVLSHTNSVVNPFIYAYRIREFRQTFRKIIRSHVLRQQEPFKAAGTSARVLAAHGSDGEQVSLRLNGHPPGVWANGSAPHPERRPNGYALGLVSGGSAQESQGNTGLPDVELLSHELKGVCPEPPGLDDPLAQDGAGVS

DAT, inhibition, % of control at 10 μM [3]	Ki [6] [nM]	Ki [9] [nM]	Ki [2] [nM]	Ki [20] [nM]	Ki [8] [nM]	SMILES	DOR, inhibition of radioligand binding at 10 μM (class) ([2]; Table 2)	MOR, inhibition of radioligand binding at 10 μM (class) [8]	A3AR binding, % at 10 μM (m) [10] [%]	also measured
–352%	–	3130 ± 300	–	–	–	CNc1nc(C#Cc2ccc(Cl)s2)nc2c1ncn2[C@H]1[C@H](O)[C@H](O)[C@]2(C(=O)OC)C[C@H]12 [compound 22]	^d (<30% inhibition of radioligand binding at 10 μM)	^c (30–50% inhibition of radioligand binding at 10 μM)	36 ± 1	TSPO, inhibition of radioligand binding at 10 μM (class) ([6]; Table 2): ^c (30–50% inhibition of radioligand binding at 10 μM)
−58%	–	1120 ± 220	–	85.6 ± 12	2670 ± 280	CNc1nc(C#Cc2ccccc2)nc2c1ccn2[C@H]1[C@H](O)[C@H](O)[C@@H]2C[C@@H]21 [compound 54, (1R,2R,3S,4R,5S)-4-(4-(Methylamino)-2-(phenylethynyl)-7H-pyrrolo[2,3-d]pyrimidin-7-yl)bicyclo[3.1.0]hexane-2,3-diol]	–	–	–	inhibition of agonist 98 in cAMP assay [17]: did not inhibit; inhibition at 30 µM [17]: 16%; DOR, inhibition of radioligand binding at 10 μM (class) ([2]; Table 5): ^d (30–50% inhibition of radioligand binding at 10 μM); inhibition of agonist 98 in βarrestin2 assay [18]: did not inhibit; reduction of hA3AR binding affinity by 7-deaza modification ([20]; 28 vs 24, 54 vs 49, 55 vs 51): 16 fold; TSPO, inhibition of radioligand binding at 10 μM (class) ([6]; Table 5): ^e (<30% inhibition of radioligand binding at 10 μM)
–39%	> 10000	276 ± 65	> 10000	4050 ± 740	7600	CCOC(=O)[C@@]12C[C@@H]1[C@@H](n1ccc3c(NC)nc(I)nc31)[C@@H]1OC(C)(C)O[C@@H]12 [compound 73, Ethyl(3aR,3bS,4aS,5R,5aS)-5-(2-iodo-4-(methylamino)-7H-pyrrolo[2,3-d]pyrimidin-7-yl)-2,2-dimethyltetrahydrocyclopropa[3,4]cyclopenta[1,2-d][1,3]dioxole-3b(3aH)-carboxylate]	–	–	–	Ki [19]: 1110 nM; Ki [22]: 6580 nM
–20%	–	52 ± 23	1990 ± 1020	1650 ± 330	1530 ± 560	CCOC(=O)[C@@]12C[C@@H]1[C@@H](n1ccc3c(NC)nc(C#Cc4ccc(Cl)s4)nc31)[C@@H]1OC(C)(C)O[C@@H]12 [compound 77, Ethyl(3aR,3bS,4aS,5R,5aS)-5-(2-((5-chlorothiophen-2-yl)ethynyl)-4-(methylamino)-7H-pyrrolo[2,3-d]pyrimidin-7-yl)-2,2-dimethyltetrahydrocyclopropa[3,4]cyclopenta[1,2-d][1,3]dioxole-3b(3aH)-carboxylate]	–	–	–	Ki [1]: 4180 nM; Ki [11]: 16 nM; selectivity at 5HT2CR compared with 5HT2BR [11]: 260 fold; TSPO, inhibition of radioligand binding at 10 μM (class) ([6]; Table 2): ^d (<30% inhibition of radioligand binding at 10 μM)

The next lines start with the compound.

SMILES	DAT, inhibition, % of control at 10 μM [3]	Ki [6] [nM]	Ki [9] [nM]	Ki [2] [nM]	Ki [20] [nM]	Ki [8] [nM]	DOR, inhibition of radioligand binding at 10 μM (class) ([2]; Table 2)	MOR, inhibition of radioligand binding at 10 μM (class) [8]	A3AR binding, % at 10 μM (m) [10] [%]	also measured
CNC(=O)[C@@]12C[C@@H]1[C@@H](n1cnc3c(NCc4cccc(Cl)c4)nc(C#Cc4ccccc4)nc31)[C@H](O)[C@@H]2O [compound 6]	7%	2650 ± 290	–	–	–	–	–	–	–	Ki [1]: 2960 ± 600 nM; DOR, inhibition of radioligand binding at 10 μM (class) ([2]; Table 1): ^e (30–50% inhibition of radioligand binding at 10 μM); Ki [4]: 2600 nM; Ki [5]: 6300 nM; Ki [7]: 1540 nM
CNc1nc(C#Cc2ccc(Br)s2)nc2c1ncn2[C@H]1[C@H](O)[C@H](O)[C@]2(C(=O)OC)C[C@H]12 [compound 23]	–370%	8120 ± 670	2090 ± 330	–	–	–	^d (<30% inhibition of radioligand binding at 10 μM)	^c (30–50% inhibition of radioligand binding at 10 μM)	57 ± 1	Ki [11]: 2330 nM
CCOC(=O)[C@@]12C[C@@H]1[C@@H](n1cnc3c(NC)nc(C#Cc4ccc(Cl)s4)nc31)[C@H](O)[C@@H]2O [compound 24]	–	1290 ± 70	396 ± 29	–	–	–	^c (30–50% inhibition of radioligand binding at 10 μM)	^d (<30% inhibition of radioligand binding at 10 μM)	45 ± 5	MOR Antag (%) ([12]; vs naloxone 121 = 100% inhibition, agonist 99 (300 nM)): –13.4%; MOR Ag (%) ([12]; vs standard agonist = 100%): 0.3%; inhibition at 10 µM [13]: 10%; inhibition at 10 µM [14]: 43%; KOR Antag (%) [15]: 58.2%; DOR Antag (%) ([16]; vs naloxone 121 = 100% inhibition): 35.3%; DOR Ag (%) ([16]; vs standard agonist = 100%): 0.7%
CCOC(=O)[C@@]12C[C@@H]1[C@@H](n1ccc3c(NCCc4ccccc4)nc(C#Cc4ccccc4)nc31)[C@H](O)[C@@H]2O [compound 43, Ethyl(1S,2R,3S,4R,5S)-2,3-dihydroxy-4-(4-(phenethylamino)-2-(phenylethynyl)-7H-pyrrolo[2,3-d]pyrimidin-7-yl)bicyclo[3.1.0]hexane-1-carboxylate]	21%	480 ± 200	207 ± 21	627 ± 178	483 ± 62	1770 ± 540	–	–	–	inhibition of agonist 98 in cAMP assay [17]: did not inhibit; inhibition at 30 µM [17]: 23%; inhibition of agonist 98 in βarrestin2 assay [18]: did not inhibit; βarrestin2 recruitment, agonist effect relative to full agonist 98 ([18]; agonist mode, highest concentrations): 30 ± 4.6%; inhibition at 10 µM ([19]; read-out: binding inhibition at hA1AR (% at 10 μM)): 26%; Ki [5]: 510 nM; inhibition at 10 µM [21]: < 10%
